{"source": "patent EP4624482A1", "about": "“PYRIMIDOPYRIMIDINONE COMPOUND AND PHARMACEUTICAL COMPOSITION COMPRISING SAME” (Axceso Biopharma Co., Ltd., priority 2022, dated 2024)", "key": {"[1]": {"test_system": "dopamine transporter (DAT)", "assay": "Differentiation of pluripotent stem cells into dopaminergic neurons: DAT", "type": "cell-based", "conditions": "western blot of 5-week differentiation sample", "method": "(§1) Pluripotent stem cells were seeded in AggreWell plates (stemcell) at 5,000 cells/microwell and cultured for 5 days in E6 medium (GIBCO) to induce embryonic body (EB) formation. For neural rosette formation, EBs were seeded into 35 mm dishes in groups of 30 and cultured for 10 days in N2bF medium. The 35 mm dishes were used after being coated with 15 µg/ml of poly-L-ornithine (sigma) and 1 µg/ml of fibronectin (sigma). The N2Bf medium composition was DMEM/F12 (GIBCO), N2 supplement (stemcell) 1×, 10% NEAA (GIBCO), 55 µM betaMercaptoethanol (GIBCO), bFGF (peprotech) 20 ng/ml. For the formation of spherical neural masses (SNMs), rosette masses were sliced and cultured in petri dishes with N2bF medium. SNMs were no larger than 500 µM in size and were sliced and cultured for 3 to 4 passages. After subculture of SNM, the clumps were broken into small pieces using a tungsten mesh (Nilaco) for the neural progenitor cell (NPC) culture step, and then attached to a PLO/FN-coated dish and cultured in N2bF medium. To differentiate NPCs into dopaminergic neurons, the medium was replaced with an ITS-B27 medium after 2 days of NPC culture. […]\n(§2) The effect of the compound of formula (1a-1) on differentiation into neurons was evaluated by comparing the expression of tyrosine hydroxylase (TH) and dopamine transporter (DAT) depending on the presence or absence of treatment with the compound of formula (1a-1)."}, "[2]": {"test_system": "tyrosine hydroxylase (TH)", "assay": "Differentiation of pluripotent stem cells into dopaminergic neurons: TH expression", "type": "cell-based", "method": "as §1, with “culture. The ITS-B27 medium composition was DMEM/F12 (GIBCO), D-(+)-glucose (sigma) 1.5 mg/ml, insulin (wako) 5 µg/ml, transferrin (wako) 50 µg/ml, selenite (sigma) 30 nM, GlutaMAX (GIBCO) 2.5%, and B27 (GIBCO) 1×. After 4 days of NPC culture, 200 ng/ml of Sonic Hedgehog and 100 ng/ml of FGF8 (peprotech) were added to the ITS-B27 medium. After 6 days of NPC culture, 200 ng/ml of Sonic Hedgehog, 20 ng/ml of GDNF, 20 ng/ml of BDNF (peprotech), 200 µM of ascorbic acid, and 500 µM of cAMP (sigma) were added to the ITS-B27 medium and cultured for approximately 5 weeks. The compound of formula (1a-1) was treated starting from the stage 2 days after NPC culture.” for “culture.”\nas §2"}, "[3]": {"test_system": "C57BL/6 mice", "assay": "Survival in sepsis induced by cecal ligation and puncture (CLP)", "type": "in vivo", "conditions": "100 ng/mouse (5 µg/kg) intravenously at 6 and 16 hours after CLP", "method": "C57BL/6 mice aged 7-8 weeks were purchased from Jabio (Suwon, Gyeonggi-do) and sepsis was induced by cecal ligation and puncture (CLP).\nSpecifically, after anesthesia using 150 mg/kg of ketamine and 17.5 mg/kg of rompun, an abdominal incision of 1-2 cm was made to expose the cecum to induce sepsis. The cecum was ligated with 6-0 silk sutures at the distal end of the ileocecal valve, and a puncture was made with an 18-gauge needle. The perforated cecum was gently squeezed to push out 1-2 cm of feces, and the cecum was then retracted back into the abdominal cavity. The abdomen was then closed and pre-warmed normal saline (2.5 mL/100 g body weight) was injected into the mouse abdominal cavity immediately after the procedure. 6 and 16 hours after CLP treatment, the compound of formula (1a-1) was dissolved in phosphate buffered saline (PBS) and injected intravenously at 100 ng/mouse (5 µg/kg), and survival was examined for 10 days. […] In addition, as a drug-negative control, survival was examined in mice that received only PBS after CLP treatment.\nFor comparison, we also examined the survival of a control group treated with fingolimod (FTY720), a known S1P modulator, instead of the compound of formula (1a-1) under the same conditions."}, "[4]": {"test_system": "C57BL/6 mice", "assay": "Acute respiratory distress syndrome induced by CLP: lung histology, lung injury score, wet-to-dry weight ratio", "type": "in vivo", "conditions": "treated at 6 and 16 hours after CLP, lungs harvested at 18 hours", "method": "CLP induces pulmonary edema due to increased inflammation and disruption of the vascular barrier, resulting in acute respiratory distress syndrome (ARDS). To determine the effect on ARDS, the compound of formula (1a-1) was treated at 6 and 16 hours after CLP treatment in the same manner as in Experimental Example 7 above, the lungs of mice were harvested at 18 hours for histological analysis, and the wet-to-dry weight ratio of the lungs was obtained. For comparison, mice without CLP treatment served as a control group.\nFor histologic analysis, the harvested lungs were fixed in 10% paraformaldehyde, infiltrated with paraffin, sectioned into 5 µm-thick tissues, and then de-paraffinized with xylene. Sectioned tissues were mounted on slides, stained with H&E, and observed under an optical microscope. In addition, the lung tissue damage was evaluated by histological score to obtain the lung injury score (LIS) for each group.\nTo calculate the wet-to-dry weight ratio, lung organs were harvested 18 hours after CLP treatment, and the wet weight was measured immediately after harvesting, and the dry weight was measured after drying in an oven at 60°C for 48 hours to calculate the wet-to-dry weight ratio. The wet-to-dry weight ratio is used as an indicator of organ edema formation."}, "[5]": {"test_system": "TNF-α", "assay": "Serum TNF-α after CLP treatment, ELISA", "type": "in vivo, mouse", "conditions": "treated at 6 and 16 hours after CLP, serum at 18 hours", "method": "After CLP treatment, the inflammatory cytokines TNF-α and IL-6 were analyzed by ELISA.\nSpecifically, after treating the compound of formula (1a-1) at 6 and 16 hours after CLP treatment, mouse blood was collected at 18 hours and allowed to stand at room temperature for 1 hour, then centrifuged at 3000 rpm for 10 minutes to obtain serum to analyze the amount of TNF-α and IL-6."}}}
{"compound": "CCCCCCCCCCCCCC[C@H]1OP(=O)(O)O[C@H]1[C@@H](N)CO.Cl", "note": "[formula (1a-1), (4S,5R)-4-((S)-1-amino-2-hydroxyethyl)-2-hydroxy-5-tetradecyl-1,3,2-dioxaphosphoran-2-oxide hydrochloride]", "values": [{"measurement": "DAT glycosylation", "setting": "[1]", "result": "increased"}, {"measurement": "TH expression at early time", "setting": "[2]; 3 weeks of treatment, normally increases after more than 5 weeks of differentiation", "result": "elevated"}, {"measurement": "expression of TH", "setting": "[2]; cell fluorescence immunostaining", "result": "increased"}, {"measurement": "TH expression", "setting": "[2]; western blot of 5-week differentiation sample", "result": "increased"}, {"measurement": "deaths after 10 days", "setting": "[3]", "result": "no deaths"}, {"measurement": "survival", "setting": "[3]; for 10 days", "result": "more than 80%"}, {"measurement": "lung injury score", "setting": "[4]", "result": "almost restores the lung injury score to normal"}, {"measurement": "lung tissue (optical microscope, H&E)", "setting": "[4]", "result": "almost restored to normal"}, {"measurement": "wet-to-dry weight ratio of the lung", "setting": "[4]", "result": "restores the wet-to-dry weight ratio of the lung to normal"}, {"measurement": "amount of inflammatory cytokine TNF-α", "setting": "[5]", "result": "significantly decreased"}]}
